Measured values reported in the NIST ThermoML archive (doi:10.1016/j.jct.2006.03.018).

How the values were obtained:
[1] = xn = mol fraction of the nth substance listed; settings: 101 kPa, Liquid
[2] = refractive index (Na D-line) (dimensionless); xn = mol fraction of the nth substance listed; settings: 101 kPa, Liquid

CCCCCO [pentan-1-ol] + COc1ccccc1
x2 = 0
Settings | mass density, 298.15 K [kg/m3] | mass density, 303.15 K [kg/m3] | mass density, 308.15 K [kg/m3] | refractive index, 298.15 K | refractive index, 303.15 K | refractive index, 308.15 K | speed of sound, 298.15 K [m/s] | viscosity, 298.15 K [mPa·s] | viscosity, 303.15 K [mPa·s] | viscosity, 308.15 K [mPa·s]
[1] | 810.92 | 807.23 | 803.52 | – | – | – | 1286 | 3.403 | 2.959 | 2.581
[2] | – | – | – | 1.4073 | 1.405 | 1.4032 | – | – | – | –

CC(C)CCO [3-methylbutan-1-ol] + COc1ccccc1
Settings | mass density, [1] [kg/m3] | refractive index, [2] | speed of sound, [1] [m/s] | viscosity, [1] [mPa·s]
298.15 K, x2 = 0 | 807.2 | 1.405 | 1241 | 3.835
298.15 K, x2 = 0.103 | 825.87 | 1.4159 | 1258 | 2.766
298.15 K, x2 = 0.2001 | 843.32 | 1.4269 | 1275 | 2.153
298.15 K, x2 = 0.3022 | 861.74 | 1.4378 | 1292 | 1.736
298.15 K, x2 = 0.3995 | 879.31 | 1.4487 | 1309 | 1.43
298.15 K, x2 = 0.4944 | 896.5 | 1.4579 | 1327 | 1.254
298.15 K, x2 = 0.5995 | 915.66 | 1.4688 | 1344 | 1.136
298.15 K, x2 = 0.6915 | 932.47 | 1.4797 | 1361 | 1.046
298.15 K, x2 = 0.8022 | 952.8 | 1.4906 | 1378 | 1.005
298.15 K, x2 = 0.9044 | 971.6 | 1.5015 | 1394 | 0.956
303.15 K, x2 = 0 | 803.45 | 1.403 | – | 3.261
303.15 K, x2 = 0.103 | 821.94 | 1.4138 | – | 2.408
303.15 K, x2 = 0.2001 | 839.25 | 1.4247 | – | 1.885
303.15 K, x2 = 0.3022 | 857.55 | 1.4355 | – | 1.544
303.15 K, x2 = 0.3995 | 875.01 | 1.4463 | – | 1.253
303.15 K, x2 = 0.4944 | 892.11 | 1.4575 | – | 1.135
303.15 K, x2 = 0.5995 | 911.16 | 1.468 | – | 1.03
303.15 K, x2 = 0.6915 | 929.01 | 1.4788 | – | 0.956
303.15 K, x2 = 0.8022 | 948.15 | 1.4896 | – | 0.938
303.15 K, x2 = 0.9044 | 966.9 | 1.5005 | – | 0.881
308.15 K, x2 = 0 | 791.86 | – | – | –
308.15 K, x2 = 0.1036 | 808.48 | 1.3966 | – | 1.242
308.15 K, x2 = 0.2003 | 827.18 | 1.4129 | – | 1.078
308.15 K, x2 = 0.3055 | 848.11 | 1.4287 | – | 0.961
308.15 K, x2 = 0.4053 | 867.53 | 1.4426 | – | 0.879
308.15 K, x2 = 0.5096 | 888.55 | 1.4542 | – | 0.838
308.15 K, x2 = 0.6015 | 906.1 | 1.4673 | – | 0.821
308.15 K, x2 = 0.7071 | 924.94 | 1.4793 | – | 0.802
308.15 K, x2 = 0.8023 | 942.78 | 1.4897 | – | 0.795
308.15 K, x2 = 0.9044 | 960.74 | 1.499 | – | 0.792
